The values that follow come from ChEMBL document CHEMBL1130686, “A new series of C3-aza carbocyclic influenza neuraminidase inhibitors: synthesis and inhibitory activity” (Bioorg Med Chem Lett, 1998).

For the assay, the target named is Neuraminidase (Influenza A virus (A/Puerto Rico/8/1934(H1N1)), UniProt P03468). As to the kind of experiment: Inhibition of neuraminidase of influenza A.

`CCCN[C@@H]1C=C(C(=O)O)C[C@H](N)[C@H]1NC(C)=O`: the IC50 stood at 200 nM.

Compound `CCCN(CC)[C@@H]1C=C(C(=O)O)C[C@H](N)[C@H]1NC(C)=O` registered an IC50 of 90 nM.

The compound `CCC(CC)N(C)[C@@H]1C=C(C(=O)O)C[C@H](N)[C@H]1NC(C)=O` had an IC50 of 6 nM.

`CCC(=O)N[C@@H]1C=C(C(=O)O)C[C@H](N)[C@H]1NC(C)=O` had an IC50 of 2700 nM.

For `CCCCN(CC)[C@@H]1C=C(C(=O)O)C[C@H](N)[C@H]1NC(C)=O`, half-maximal inhibition (IC50) required 85 nM.

`CC(=O)N[C@H]1[C@H](N(C)CCc2ccccc2)C=C(C(=O)O)C[C@@H]1N` showed an IC50 of 100 nM.

Compound `CC(=O)N[C@@H]1[C@@H](N)CC(C(=O)O)=C[C@H]1NC(=O)C(C)C` had an IC50 of 6400 nM. Compared with the last compound, the IC50 is about 64-fold higher.

As to `CC(=O)N[C@H]1[C@H](N(C)C2CCCCC2)C=C(C(=O)O)C[C@@H]1N`, it took 200 nM to reach half-maximal inhibition (IC50).

The compound `CCC(CC)N[C@@H]1C=C(C(=O)O)C[C@H](N)[C@H]1NC(C)=O` had an IC50 of 11 nM.

For `CCC(CC)C(=O)N[C@@H]1C=C(C(=O)O)C[C@H](N)[C@H]1NC(C)=O`, the IC50 came to 4000 nM.

As to `CCCN(CCC)[C@@H]1C=C(C(=O)O)C[C@H](N)[C@H]1NC(C)=O`, the midpoint of inhibition, the IC50, lay at 12 nM. Against the preceding compound, the IC50 is about 330-fold lower.

For the compound `CCCCN(C)[C@@H]1C=C(C(=O)O)C[C@H](N)[C@H]1NC(C)=O`, the IC50 came out at 180 nM.
